PMC9071458, “The tRNA discriminator base defines the mutual orthogonality of two distinct pyrrolysyl-tRNA synthetase/tRNA^Pyl pairs in the same organism” (Nucleic Acids Research, 2022)

Assays:
Test in all cases: UAG suppression of SAMP1 reporter in H. volcanii, immunoblot and LC-MS/MS of the product
Format in all cases: cell-based
HMET1 PylRS1 [1] = target: T1, HMET1 PylRS1 (Candidatus Methanohalarchaeum thermophilum, UniProt A0A1Q6DXK2, N163S/V165I); settings: 1 mM 3-I-Phe in medium, tRNAPyl1, 42 °C; printed as PylRS1-SI
T1 construct: gene BTN85_1602; deltaPylSn type (catalytic domain only), N-terminal 6xHis tag, expressed in Haloferax volcanii
T1 sequence (A0A1Q6DXK2 entry or part of it N163S/V165I): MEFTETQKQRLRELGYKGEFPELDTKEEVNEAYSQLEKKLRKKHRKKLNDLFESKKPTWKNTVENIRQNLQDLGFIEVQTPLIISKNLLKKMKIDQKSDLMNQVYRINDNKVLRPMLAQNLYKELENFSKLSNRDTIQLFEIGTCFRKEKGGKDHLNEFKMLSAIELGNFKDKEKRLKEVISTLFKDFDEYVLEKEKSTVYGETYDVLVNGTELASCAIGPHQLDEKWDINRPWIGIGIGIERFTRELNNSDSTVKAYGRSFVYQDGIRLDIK

HMET1 PylRS1 [2] = target: T2, HMET1 PylRS1 (Candidatus Methanohalarchaeum thermophilum, UniProt A0A1Q6DXK2); settings: 1 mM BocK in medium, cognate tRNAPyl1, 42 °C
T2 construct: gene BTN85_1602; deltaPylSn type (catalytic domain only), N-terminal 6xHis tag, expressed in Haloferax volcanii
T2 sequence (A0A1Q6DXK2 1-273): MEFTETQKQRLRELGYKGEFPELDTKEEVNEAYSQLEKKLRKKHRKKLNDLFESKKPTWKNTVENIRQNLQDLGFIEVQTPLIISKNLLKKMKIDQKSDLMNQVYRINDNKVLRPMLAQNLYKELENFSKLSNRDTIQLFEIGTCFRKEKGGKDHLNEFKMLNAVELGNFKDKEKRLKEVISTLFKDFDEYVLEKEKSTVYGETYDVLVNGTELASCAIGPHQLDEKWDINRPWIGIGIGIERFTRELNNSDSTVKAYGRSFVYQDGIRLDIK

HMET1 PylRS2 = target: T3, HMET1 PylRS2 (Candidatus Methanohalarchaeum thermophilum, UniProt A0A1Q6DTA0); settings: 1 mM BocK in medium, cognate tRNAPyl2, 42 °C
T3 construct: gene BTN85_0018; deltaPylSn type (catalytic domain only), N-terminal 6xHis tag, expressed in Haloferax volcanii
T3 sequence (A0A1Q6DTA0 1-273): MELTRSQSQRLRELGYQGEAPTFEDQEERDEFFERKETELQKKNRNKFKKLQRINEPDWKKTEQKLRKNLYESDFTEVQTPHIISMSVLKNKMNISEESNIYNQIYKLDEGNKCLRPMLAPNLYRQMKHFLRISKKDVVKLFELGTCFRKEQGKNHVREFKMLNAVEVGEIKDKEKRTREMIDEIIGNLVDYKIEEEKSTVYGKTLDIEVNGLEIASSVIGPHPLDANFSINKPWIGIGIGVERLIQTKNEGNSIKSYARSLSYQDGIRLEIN

Compound	UAG suppression of SAMP1 reporter in H. volcanii, immunoblot and LC-MS/MS of the (HMET1 PylRS1 [1])	UAG suppression of SAMP1 reporter in H. volcanii, immunoblot and LC-MS/MS of the (HMET1 PylRS1 [2])	UAG suppression of SAMP1 reporter in H. volcanii, immunoblot and LC-MS/MS of the (HMET1 PylRS2)
N[C@@H](Cc1cccc(I)c1)C(=O)O [3-I-Phe]	The PylRS1-SI/tRNA^Pyl1 pair exhibited strong amber suppression in a 3-I-Phe-dependent manner		
CC(C)(C)OC(=O)NCCCC[C@H](N)C(=O)O [BocK]		both HMET1 PylRS/tRNA^Pyl pairs facilitated efficient amber suppression	native HMET1 PylRS/tRNA^Pyl pairs incorporate BocK into proteins via genetic code expansion in H. volcanii
